{"source": "patent US20150126467A1", "about": "“USE OF ALGINATE OLIGOMERS TO ENHANCE THE EFFECTS OF ANTIFUNGAL AGENTS” (AlgiIPharma AS, priority 2011, published 2015)", "key": {"[1]": {"system": "Cryptococcus neoformans CCUG 23451", "experiment": "Robotic MIC assay, Cryptococcus neoformans (Example 6)", "type": "cell-based", "conditions": "for MIC: Cryptococcus neoformans, read-out: Minimum Inhibitory Concentration (MIC)", "procedure": "Cryptococcus sp. was grown at 30° C. for 96 h on YM-agar. Spores and aerial mycelium was cut out from the agar, suspended in 1 ml YM-broth and dispersed with glass beads (1 mm) in a mini bead beater for 2 min. The suspension was added glycerol to 10% and frozen at −80° C. Each batch of frozen stock culture was then characterized in separate growth experiments using Mueller-Hinton and RPMI to determine the minimum amount of inoculum giving satisfactory growth after 48 h under the conditions relevant for the MIC assay. This inoculum procedure is used in order to reduce day to day variation in bioassays.\nRobotic minimum inhibitory concentration (MIC) assay was performed as follows. OligoG CF-5/20 was dissolved in medium (Mueller-Hinton, RPMI with 2% glucose, Sabouraud or YM) to 1.25 times of the desired assay concentrations (2, 6 and 10%). […].\nTwo-fold serial dilutions of antifungal agents were made in medium with different concentrations of OligoG CF-5/20, and the solutions were placed in four parallel wells in Nunc 384-well micro plates (30 μl per well in Nunc 242757 microplates). A group of 8 wells with no addition of antifungal agents for each OligoG CF-5/20 concentration was included on each micro plate as growth reference. Each well in the 384-well assay plates was added 7.5 μl of the medium innoculated with frozen stock culture of the relevant strains.\nThe microplates were placed in plastic bags and incubated without shaking at 34° C. The optical density at 600 nm in the microwells was measured after certain time points from 24 h to 96 h of incubation. […]"}, "[2]": {"system": "C. parapsillosis ATCC 22019T", "experiment": "Robotic MIC assay, Candida strains (Example 2)", "type": "cell-based, Candida parapsilosis", "conditions": "Lodderomyces parapsilosis, ATCC22019, 48 h, Mueller-Hinton broth, read-out: Minimum Inhibitory Concentration (MIC)", "procedure": "A robotic MIC Assay was performed as follows. OligoG CF-5/20 were dissolved in medium (Mueller-Hinton broth or M19 broth depending on experiment) to 1.25 times of the desired assay concentrations (2, 6 and 10%). The antifungal agents under test were dissolved in medium without OligoG CF-5/20 and in medium with OligoG CF-5/20 at a concentration of 1.25 times the highest desired assay concentrations. For experiments where the effect of adding different concentrations of Na^+ was investigated, NaCl was dissolved in medium to the desired concentrations (10, 30 and 50 mM).\nTwo-fold serial dilutions of antifungal agents were made in medium with different concentrations of OligoG CF-5/20, and the solutions were placed in four parallel wells in Nunc 384-well micro plates (30 μl per well in Nunc 242757 microplates). A group of 8 wells with no addition of antifungal agents for each OligoG CF-5/20 concentration was included on each microplate as growth reference. To each well in the 384-well assay plates was added 7.5 μl of medium inoculated with a frozen stock culture of Candida albicans (strain CCUG 39343).\nThe micro plates were placed in plastic bags and incubated without shaking at 34° C. The optical density at 600 nm in the microwells was measured after approximately 13, 18, 24 and 34 hours of incubation, and the relative growth yield in each well was calculated based on the growth in the reference groups.\nThe robotic assay described in Example 1 was employed in this Example. Strains were grown in Mueller-Hinton broth (LAB114 from Lab M Limited) and MIC values (μg ml-1) were determined for each antifungal after incubation for 48 h in the presence of 0, 2, 6 and 10% OligoG CF-5/20 G-fragments. […] OligoG CF-5/20 G-fragments were provided by AlgiPharma AS, Norway.\nCandida strains used were as follows: • C. albicans CCUG 39343 (strain from culture collection) • C. parapsillosis ATCC 22019T (strain from culture collection) • C. krusei 141/03 (candidosis) • C. krusei 249/03(2) (ulceration) • C. lusitaniae 994/01(2) (candidosis) • C. tropicalis 12 (vaginal) • C. tropicalis 75 (vaginal) • C. tropicalis 519468 (urinary) • C. tropicalis 544123 (urinary) • C. tropicalis 250/03 (candidosis) • C. tropicalis AG1 (oral) • C. tropicalis T2.2 (oral)"}, "[3]": {"system": "Aspergillus niger CCUG 18919", "experiment": "Robotic MIC assay, Aspergillus (Example 4)", "type": "cell-based", "conditions": "Aspergillus niger, CCUG18919, 48 h, Mueller-Hinton broth, read-out: Minimum Inhibitory Concentration (MIC)", "summary_of_the_method": "(§1)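 Frozen spore/mycelium stocks were used as inoculum, sized for adequate 48 h growth. Two-fold antifungal dilutions were prepared in Mueller-Hinton broth with OligoG CF-5/20 (2, 6 or 10% assay concentrations; quadruplicate wells). Plates were incubated static at 34 °C, with OD600 read at about 24 and 48 h.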"}, "[4]": {"system": "Aspergillus fumigatus CCUG 17460", "experiment": "Robotic MIC assay, Aspergillus (Example 4)", "type": "cell-based", "conditions": "Aspergillus fumigatus, CCUG17460, 48 h, Mueller-Hinton broth, read-out: Minimum Inhibitory Concentration (MIC)", "summary_of_the_method": "as §1"}}, "note": "Like-named read-outs stand apart in the source and are kept apart here.", "data": [{"smiles": "OC(Cn1cncn1)(Cn1cncn1)c1ccc(F)cc1F", "note": "[Fluconazole, fluconazole]", "values": [{"measurement": "MIC", "setting": "[1]; CCUG23451, 72 h, RPMI 2% GLU, 0% OligoG, 72 hours", "result": 2, "unit": "µg/mL"}, {"measurement": "MIC", "setting": "[1]; CCUG23451, 72 h, RPMI 2% GLU, 2% OligoG, 72 hours", "result": 1, "unit": "µg/mL"}, {"measurement": "MIC", "setting": "[1]; CCUG23451, 72 h, RPMI 2% GLU, 6% OligoG, 72 hours", "result": 0.5, "unit": "µg/mL"}, {"measurement": "MIC", "setting": "[1]; CCUG23451, 72 h, Sabouraud, 0% OligoG, 72 hours", "result": 1, "unit": "µg/mL"}, {"measurement": "MIC", "setting": "[1]; CCUG23451, 72 h, Sabouraud, 2% OligoG, 72 hours", "result": 0.5, "unit": "µg/mL"}, {"measurement": "MIC", "setting": "[1]; CCUG23451, 72 h, Sabouraud, 6% OligoG, 72 hours", "result": 0.5, "unit": "µg/mL"}, {"measurement": "MIC", "setting": "[1]; CCUG23451, 72 h, YM, 0% OligoG, 72 hours", "result": 1, "unit": "µg/mL"}, {"measurement": "MIC", "setting": "[1]; CCUG23451, 72 h, YM, 2% OligoG, 72 hours", "result": 0.5, "unit": "µg/mL"}, {"measurement": "MIC", "setting": "[1]; CCUG23451, 96 h, MH, 0% OligoG, 96 hours", "result": 2, "unit": "µg/mL"}, {"measurement": "MIC", "setting": "[1]; CCUG23451, 96 h, MH, 2% OligoG, 96 hours", "result": 0.5, "unit": "µg/mL"}, {"measurement": "MIC", "setting": "[1]; CCUG23451, 96 h, RPMI 2% GLU, 0% OligoG, 96 hours", "result": 2, "unit": "µg/mL"}, {"measurement": "MIC", "setting": "[1]; CCUG23451, 96 h, RPMI 2% GLU, 2% OligoG, 96 hours", "result": 1, "unit": "µg/mL"}, {"measurement": "MIC", "setting": "[1]; CCUG23451, 96 h, RPMI 2% GLU, 6% OligoG, 96 hours", "result": 1, "unit": "µg/mL"}, {"measurement": "MIC", "setting": "[1]; CCUG23451, 96 h, RPMI 2% GLU, 10% OligoG, 96 hours", "result": 1, "unit": "µg/mL"}, {"measurement": "MIC", "setting": "[1]; CCUG23451, 96 h, Sabouraud, 0% OligoG, 96 hours", "result": 1, "unit": "µg/mL"}, {"measurement": "MIC", "setting": "[1]; CCUG23451, 96 h, Sabouraud, 2% OligoG, 96 hours", "result": 0.5, "unit": "µg/mL"}, {"measurement": "MIC", "setting": "[1]; CCUG23451, 96 h, Sabouraud, 6% OligoG, 96 hours", "result": 0.5, "unit": "µg/mL"}, {"measurement": "MIC", "setting": "[1]; CCUG23451, 96 h, YM, 0% OligoG, 96 hours", "result": 1, "unit": "µg/mL"}, {"measurement": "MIC", "setting": "[1]; CCUG23451, 96 h, YM, 2% OligoG, 96 hours", "result": 1, "unit": "µg/mL"}, {"measurement": "effect on MIC when OligoG is added to the medium", "setting": "[1]; media: RPMI with 2% glucose, MH, Sabouraud, YM", "result": "reduction in MIC in all media tested"}, {"measurement": "MIC", "setting": "[2]; 0% OligoG", "result": 2, "unit": "µg/mL"}, {"measurement": "MIC", "setting": "[2]; 2% OligoG", "result": 2, "unit": "µg/mL"}, {"measurement": "MIC", "setting": "[2]; 6% OligoG", "result": 0.5, "unit": "µg/mL"}, {"measurement": "MIC", "setting": "[2]; 10% OligoG", "result": 0.25, "unit": "µg/mL"}, {"measurement": "MIC", "setting": "[3]; A. niger CCUG 18919, 0% OligoG", "result": "> 128", "unit": "µg/mL"}, {"measurement": "MIC", "setting": "[3]; A. niger CCUG 18919, 2% OligoG", "result": "> 128", "unit": "µg/mL"}, {"measurement": "MIC", "setting": "[3]; A. niger CCUG 18919, 6% OligoG", "result": "> 128", "unit": "µg/mL"}, {"measurement": "MIC", "setting": "[3]; A. niger CCUG 18919, 10% OligoG", "result": 128, "unit": "µg/mL"}, {"measurement": "MIC", "setting": "[4]; A. fumigatus CCUG 17460, 0% OligoG", "result": "> 128", "unit": "µg/mL"}, {"measurement": "MIC", "setting": "[4]; A. fumigatus CCUG 17460, 2% OligoG", "result": "> 128", "unit": "µg/mL"}, {"measurement": "MIC", "setting": "[4]; A. fumigatus CCUG 17460, 6% OligoG", "result": 128, "unit": "µg/mL"}, {"measurement": "MIC", "setting": "[4]; A. fumigatus CCUG 17460, 10% OligoG", "result": 128, "unit": "µg/mL"}]}]}
